According to patent publication US6943147B2, “Cancer treatment using proANP peptides” (University of South Florida, priority 2003, dated 2005):

Test system: pancreatic adenocarcinoma cells
Assay: DNA synthesis by bromodeoxyuridine (BrdU) incorporation into adenocarcinoma cells
Assay type: cell-based, human
Conditions: 1 μM, 24 hours
Description: To investigate whether these peptide hormones were inhibiting DNA synthesis and cell proliferation bromodeoxyuridine (BrdU) incorporation into the adenocarcinoma cells was utilized. BrdU was from BD Bioscience, San Jose, Calif. DNA synthesis and doubling of the genome take place during the synthetic or S phase. BrdU is a thymidine analog incorporated into nuclear DNA during the S phase of the cell cycle. Immunohistochemical methods use BrdU also as a marker of cell proliferation in cancer biology studies. After 24 hours in culture with 1 μM of LANP, vessel dilator, kaliuretic peptide, or ANP, respectively, or with no peptide hormone (i.e., control), BrdU in a final concentration of 10 μM in the cell culture medium was added for 45 minutes—which is time in which the cells are in the logarithmic phase of cell proliferation. For immunohistochemistry, a BrdU in situ detection kit from Becton Dickinson Immunocytochemistry Systems, San Jose, Calif., was utilized.
After the 45 minutes with BrdU, the adenocarcinoma cells were washed three times in phosphate buffered saline (PBS), five minutes each. This was followed by placing the cells in a −80° C. freezer for five minutes and then 100% methanol was added at 5° C. in order for the cells to become permeable enabling the anti-BrdU antibody to reach the nucleus of the cell. The cells were then washed again in PBS before 100 μl of biotinylated anti-BrdU antibody was added. The coverslips were then incubated in a humidified chamber for one hour. After this incubation, the slides were rinsed in PBS, two minutes each. Then streptavidin-horseradish peroxidase (HRP) was added to each coverslip. The cells were then incubated for 30 minutes. Streptavidin-HRP binds to biotinylated anti-BrdU and HRP is used with addition of diaminobenzidine (DAB) substrate system to visualize BrdU incorporation into the adénocarcinoma cells. After the 30 minute incubation with streptavidin-HRP, the coverslips were rinsed in PBS, two minutes each time, before adding the DAB substrate solution, which contains DAB chromagen and DAB buffer, for five minutes. The coverslips were then rinsed in water, two minutes each time before counterstaining the slides with hematoxylin for 60 seconds followed by a thorough rinsing in water for five minutes. The incorporation of the BrdU stain into the nucleus was then counted using a Nikon Inverted Diaphot-TMD Microscope (Tokyo, Japan). The number of stained nuclei was compared in the four peptide hormone groups to the positive control group. The negative control for these studies was provided by Becton Dickinson Immunocytochemistry Systems.
BrdU has an advantage over ^3H-thymidine incorporation in that it takes less time and provides high resolution.
Cyclic GMP and prostaglandin E2 are the two known mediators of all of the previously described biologic effects of these four peptide hormones. All four of these peptide hormones-induced vasodilation of vasculature is mediated by increased cyclic GMP concentrations via enhancing guanylate cyclase activity. […] ANPs effects in the kidney are thought to be mediated by cyclic GMP. Each of these peptide hormones increase cyclic GMP while simultaneously dilating vasculature. 8 bromo-cyclic GMP reproduces these vasodilatory effects. For the present investigation of the mechanism of these peptide hormones' ability to inhibit DNA synthesis in cancer cells, 8-bromoguanosine 3′,5′-cyclic monophosphate (i.e., 8-bromo cyclic GMP, Sigma-Aldrich Co., St. Louis, Mo.) was utilized. 8-bromo cyclic GMP is a cell-permeable analog of cyclic GMP. 8-bromo cyclic GMP effects on DNA synthesis were investigated in dose-response curves with cyclic GMP concentrations ranging from 100 pM to 5 mM.
Prostaglandin E2, i.e., (5Z, 11α, 13E, 15S)-11, 15-dihydro-9-oxo-prosta-5, 13-dien-I-oic acid was purchased from Sigma-Aldrich, St. Louis, Mo. […]

vessel dilator: a.a. 31-67 of the 126 a.a. ANP prohormone; peptide hormone from Peninsula Laboratories
inhibition of DNA synthesis: 91%
